pIC50: −log10 of the molar value.
How the values were obtained:
[1] = system: B cell activation in human whole blood; assay: Inhibition of B cell activation in human whole blood (CD69 expression, flow cytometry); format: cell-based; details: anti-human IgD 30 µg/ml + IL-4 5 ng/ml, 18 hours, CD69-positive CD19-positive B cells, read-out: IC50 values of inhibitory activity against B cell activation in human whole blood
Excerpt: Test example 2: Inhibitory activity of compounds of the present disclosure against B cell activation in human whole blood • I. Experimental materials and instruments • 1. Human whole blood (internal recruitment) • 2. Goat F(ab')2 anti-human IgD-UNLB (SouthernBiotech, 2032-01) • 3. DPBS (1x) (Gibco, 14190-144) • 4. Recombinant human IL-4 (Peprotech, 200-04) • 5. Brilliant Violet 421™ anti-human CD19 antibody (Biolegend, 302234) • 6. APC anti-human CD69 antibody (Biolegend, 310910) • 7. APC mouse IgG1, κ isotype control antibody (Biolegend, 400120) • 8. eBioscience™ 10X RBC lysis buffer (multi-species) (Thermo, 004300-54) • 9. NEST 96-well deep-well plate (Wuxi NEST Biotechnology Co., Ltd., 503501) • 10. 96-well round-bottom plate (Corning, 3788) • 11. 96-well flat-bottom plate (Corning, 3599) • 12. Attune™ NxT acoustic focusing cytometer (ThermoFisher Scientific, 4.2.0) • 13. Cell incubator (Thermo, Forma steri-cycle i160) • II. Experimental procedure
B cells express the B cell receptor (BCR) complex on their surface. When B cells in human whole blood are induced to activate, they can trigger the downstream signalling pathways of the receptor and express the activation marker CD69. The expression of CD69 in activated B cells was detected by flow cytometry, and the IC50 of the compounds were calculated to evaluate the effects of the compounds on BCR activation.
The test compounds dissolved in 100% DMSO at 20 mM were diluted with 100% DMSO to a concentration of 1 mM, which represents the 200× concentration of the highest compound concentration point in the reaction system. The compounds at this concentration were then subjected to 8-point 4-fold serial dilution with 100% DMSO. The positive control wells were set with 100% DMSO, whereas the negative control wells were set with Remiburtinib at a final concentration of 5 µM. The serially diluted compounds and 100% DMSO were further diluted 10-fold in PBS to achieve the 20× concentration, followed by thorough mixing.
After thorough mixing, the whole blood sample was transferred to a loading reservoir and then dispensed into a 96-well flat-bottom plate at 80 µl per well. The compound dilution was dispensed at 5 µl per well. The 11th column of each row was designated as the negative control well, with 5 µl of 100 µM positive control drug added to each well. After thorough mixing for 5 min, the plate was incubated in a 37°C incubator for 30 min. Human IgD antibody was diluted 1.67-fold with PBS to a concentration of 300 µg/mL, and 10 µl of the diluted solution was added to each well of the culture plate (final concentration: 30 µg/ml). Human IL-4 (stock solution at 50 µg/ml) was diluted 500-fold with PBS to a concentration of 100 ng/mL, and 5 µl of the diluted solution was added to each well of the culture plate (final concentration: 5 ng/ml). After thorough mixing for 5 min, the plate was cultured in a 37°C incubator with 5% CO2 for 18 hours.
Flow cytometry detection: CD69-APC, CD19-BV421 and CD4-APC antibodies, and the isotype control antibodies for CD69-APC were removed from 4°C storage. Each antibody was added at 1 µl per well. After thorough mixing for 5 min, the plate was incubated for 30 min at 4°C (refrigerator) in the dark for staining. The 10X RBC lysis buffer was diluted in water to prepare 1X RBC lysis buffer. Aliquots of 1 ml of the lysis buffer were dispensed into each well of a 96-well deep-well plate in advance. The stained samples were transferred into the deep-well plate containing the lysis buffer for erythrocyte lysis. After completing the transfer of an entire plate, the plate was incubated in the dark for 15-20 min. Upon completion of lysis, the plate was centrifuged at 2000 rpm for 4 min. Each well was washed with 1 ml of PBS. Subsequently, the cells were resuspended in 200 µl of PBS, transferred to a 96-well plate, and washed twice more using the same procedure. The samples were resuspended in 200 µl of PBS per well and then subjected to flow cytometry detection. […]

mouse RPA model = assay: Efficacy in mouse RPA model (acute urticaria induced by OVA antigen and anti-OVA IgG); format: in vivo, C57BL/6N mice; details: single dose, p.o.; for inhibition of OVA-induced skin swelling in mice: compared with the model group
Method: To evaluate the efficacy of compound 3 in a mouse RPA model.
The administration volume of the vehicle was 10 ml/kg, and that of compound 3 was 20 ml/kg. The vehicle consisted of 0.5% MC + 0.5% Tween 80 + 99% water.
Thirty-three female C57BL/6N mice weighing 18-20 g were purchased from Vital River Laboratories. Animal production license No.: SCXK (Zhe) 2024-0001; animal qualification certificate No.: 20240229Abzz0619000122. The mice were housed in an SPF-grade animal facility under a 12/12-hour light/dark cycle, with a constant temperature of 23°C ± 1°C and a relative humidity of 50-60%. Food and water were provided ad libitum.
After acclimatisation, the mice were grouped and administered as follows: Table 4. Animal grouping and dosing regimen for in vivo efficacy experiment
After acclimatisation, the mice were shaved on the back one day prior to the experiment for skin preparation. On the day of the experiment, the mice were administered the vehicle control or compound 3 via oral gavage at administration volumes of 10 ml/kg and 20 ml/kg, respectively. Two hours post-administration, the mice were anaesthetised with isoflurane, and the thickness of the dorsal skin was measured using a vernier calliper. Upon completion of the measurement, 30 µg of mouse anti-OVA IgG was intradermally injected into the dorsal skin of the mice, while an equal volume of PBS was injected into the control group. Simultaneously, 200 µl of 2 mg/ml OVA antigen was intravenously injected. After 3 hours, the thickness of the skin swelling at the modelling site was measured.
Data of relevant indicators for animals in each group were expressed as mean ± standard deviation (Mean ± SD) and statistically analysed and plotted using GraphPad software.

hERG potassium channels = hERG potassium channels (Homo sapiens, UniProt Q12809); assay: in vitro
Sequence of hERG potassium channels (Q12809 whole entry): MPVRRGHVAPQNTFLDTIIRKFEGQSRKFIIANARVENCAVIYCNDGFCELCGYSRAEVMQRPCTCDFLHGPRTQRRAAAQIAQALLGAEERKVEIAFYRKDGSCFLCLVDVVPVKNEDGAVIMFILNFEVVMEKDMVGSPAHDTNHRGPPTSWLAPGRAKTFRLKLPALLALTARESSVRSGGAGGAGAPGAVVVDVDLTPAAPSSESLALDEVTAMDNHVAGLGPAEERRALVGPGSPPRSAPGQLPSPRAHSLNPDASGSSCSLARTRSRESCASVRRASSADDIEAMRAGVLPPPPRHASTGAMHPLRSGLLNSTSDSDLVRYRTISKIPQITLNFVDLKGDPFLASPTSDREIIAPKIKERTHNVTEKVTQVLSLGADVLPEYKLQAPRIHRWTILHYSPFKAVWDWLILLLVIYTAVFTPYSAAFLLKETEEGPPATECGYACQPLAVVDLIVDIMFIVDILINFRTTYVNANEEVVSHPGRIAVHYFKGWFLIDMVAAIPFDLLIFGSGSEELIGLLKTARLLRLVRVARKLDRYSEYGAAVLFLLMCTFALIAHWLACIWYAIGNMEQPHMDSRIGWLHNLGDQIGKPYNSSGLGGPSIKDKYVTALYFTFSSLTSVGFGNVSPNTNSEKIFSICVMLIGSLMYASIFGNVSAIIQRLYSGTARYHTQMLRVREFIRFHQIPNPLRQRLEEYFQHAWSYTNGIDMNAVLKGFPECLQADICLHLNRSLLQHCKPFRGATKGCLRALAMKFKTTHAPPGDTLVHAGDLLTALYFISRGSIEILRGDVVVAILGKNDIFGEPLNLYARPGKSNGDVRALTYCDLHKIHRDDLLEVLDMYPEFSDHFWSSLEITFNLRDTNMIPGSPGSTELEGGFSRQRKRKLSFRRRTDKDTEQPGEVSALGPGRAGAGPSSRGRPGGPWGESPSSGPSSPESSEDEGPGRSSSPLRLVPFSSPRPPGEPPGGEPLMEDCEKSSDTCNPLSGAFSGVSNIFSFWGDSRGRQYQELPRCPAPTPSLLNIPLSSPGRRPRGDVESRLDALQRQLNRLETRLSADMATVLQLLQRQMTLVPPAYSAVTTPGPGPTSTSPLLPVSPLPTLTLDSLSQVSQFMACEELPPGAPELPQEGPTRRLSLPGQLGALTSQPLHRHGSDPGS

pIC50 [1]: 7.00 to 8.00
SMILES: C=CC(=O)N(C)CCOc1c(N)ncnc1-c1cc(F)cc(NC(=O)c2cc3c(cc2F)C2(CC2)CO3)c1C [Example 3, N-(3-(6-amino-5-(2-(N-methacrylamido)ethoxy)pyrimidin-4-yl)-5-fluoro-2-methylphenyl)-5-fluoro-2H-spiro[benzofuran-3,1'-cyclopropane]-6-carboxamide]
inhibitory effect on skin swelling across doses (mouse RPA model; 30, 100 and 150 mpk): dose-dependent inhibitory effect | inhibition of OVA-induced skin swelling in mice (mouse RPA model; 30 mpk): no statistically significant difference | inhibition of OVA-induced skin swelling in mice (mouse RPA model; 100 mpk): significantly inhibited | inhibition of OVA-induced skin swelling in mice (mouse RPA model; 150 mpk): significantly inhibited | pIC50 (hERG potassium channels): < 4.91
